{"source": "patent US20120259413A1", "about": "“DEVICES, COMPOSITIONS AND METHODS UTILIZING EP4 AND EP2 RECEPTOR AGONISTS FOR PREVENTING, REDUCING OR TREATING CAPSULAR CONTRACTURE” (ALLERGAN, INC., priority 2011, published 2012)", "key": {"incisional skin wounds [1]": {"system": "incisional skin wounds", "assay": "Incisional skin wound study comparing Compound I and TGF-β3", "type": "in vivo, rats", "details": "for number of neutrophils counted in three sections: 3 days post-surgery, H&E, n=5, vehicle 60.6±30; for macroscopic surface appearance of wound sites / abnormal regions of dense, red, fine parallel fibers in wound gaps: 70 days post-surgery; for abnormal regions of dense, red, fine parallel fibers in wound gaps: Picrosirius red; for widths of the abnormal structured dermis regions versus vehicle: day 14, Masson trichrome; for gap width in-between the normal fibrils versus vehicle / collagen fibrils at wound sites under polarized light: day 14, Picrosirius red; for gap width in-between the normal fibrils versus vehicle: p<0.05; for collagen fibrils at wound sites under polarized light: yellow type I, green type III collagen", "protocol": "A similar skin wound study was also performed comparing the effects of Compound I and TGF-β3. In this study, intradermal injections of Compound I at 0.004%, TGF-β3 at 100 ng/200 μl or vehicle were given right before closing the wounds. Afterward, TGF-β3 was injected two more times, on day 1 and 2, and Compound I and vehicle were topically applied twice a day for the duration of the study. The vehicle was PBS with 0.1% BSA and 4 mM HCl in a total volume of 200 μl for injection. Skin wounds were imaged on day 3, 7, 14, 35 and 70.\n(§1) The wound tissue was biopsied for histopathology on day 3, 14 and 70. To observe the skin wound, paraffin-embedded wound sections were made. Regular H&E staining was carried out in comparison with Masson trichrome and/or Picosirus red to visualize the collagen fibers. To monitor myofibroblasts in skin wound, the sections were immunohistochemically stained to identify alpha-smooth muscle actin. To assess wound appearance, all the scar photos were mixed together by the end of each study. The scar severity was scored on a scale of 0 to 10, with 0 being invisible, 1 the minimal and 10 the worst. Each scar was divided into 4 regions, separated by suture sites; each quarter was scored independently; the mean of the 4 part scores was recorded as the gross score of each wound."}, "hEP2 [2]": {"molecular_target": "T1, hEP2 (Homo sapiens, UniProt P43116)", "T1 construct": "expressed in transfected cells", "T1 sequence (P43116 whole entry)": "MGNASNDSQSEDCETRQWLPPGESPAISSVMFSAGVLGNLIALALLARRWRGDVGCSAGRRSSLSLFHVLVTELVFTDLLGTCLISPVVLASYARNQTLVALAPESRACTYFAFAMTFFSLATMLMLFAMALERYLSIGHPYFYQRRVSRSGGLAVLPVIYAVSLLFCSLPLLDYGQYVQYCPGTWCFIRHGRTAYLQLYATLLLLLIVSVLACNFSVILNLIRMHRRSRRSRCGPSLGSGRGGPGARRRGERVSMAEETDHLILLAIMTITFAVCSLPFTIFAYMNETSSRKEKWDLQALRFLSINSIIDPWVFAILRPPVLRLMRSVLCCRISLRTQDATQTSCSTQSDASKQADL", "assay": "Radioligand binding assay ([3H]PGE2 competition), EP2 receptor", "protocol": "(§2) General Protocol for Radioligand Binding Assays and cAMP assays:\n(§3) Radioligand binding studies on plasma membrane fractions prepared from cells** are performed as follows. Cells washed with TME buffer are scraped from the bottom of the flasks and homogenized for 30 sec using a Brinkman PT 10/35 polytron. TME buffer is added as necessary to achieve a 40 ml volume in the centrifuge tubes. TME is comprised of 50 mM TRIS base, 10 mM MgCl2, 1 mM EDTA; pH 7.4 is achieved by adding 1 N HCl. The cell homogenate is centrifuged at 19,000 rpm for 20-25 min at 4° C. using a Beckman Ti-60 or Tt-70 rotor. The pellet is then re-suspended in TME buffer to provide a final protein concentration of 1 mg/ml, as determined by Bio-Rad assay. Radioligand binding assays are performed in a 100 μl or 200 μl volume.\n(§4) The binding of [^3H] PGE2 (specific activity 165 Ci/mmol) is determined in duplicate and in at least 3 separate experiments. […] PGE2 and non-specific binding is determined with 10^−5 M unlabelled PGE2. […]\n(§5) Plasmids encoding the human EP1, EP2, EP3, EP4, FP, TP, IP and DP receptors are prepared by cloning the respective coding sequences into the eukaryotic expression vector pCEP4 (Invitrogen). […] Selection of stable transfectants is achieved with 200 μg ml^−1 hygromycin, the optimal concentration being determined by previous hygromycin kill curve studies. […]"}, "[3]": {"molecular_target": "T2, human recombinant EP2 receptor (HEK-293 cells) (Homo sapiens, UniProt P43116)", "T2 construct": "expressed in transfected cells", "T2 sequence (P43116 whole entry)": "as above", "assay": "AlphaScreen cAMP assay, EP2 receptor", "type": "cell-based", "details": "read-out: cAMP enhancement EC50", "protocol": "(§6) cAMP assay was carried out using AlphaScreen cAMP assay kits (PerkinElmer, Boston, Mass.) following manufacturer instructions. Intracellular Ca^2+ was monitored using a FLIPR Tetra system and assay kits from Molecular Devices following manufacturer instructions. All assays were carried out in HEK-293 cells heterologously and stably expressing each of the eight human recombinant prostanoid receptors. For Ca^2+ signals, hEP2, hEP4, hDP were co-expressed with a chimeric G protein, Gqs, which converts Gs signal to Gq Ca^2+ signal, and hEP3 with a chimeric G protein, Gqi. Each receptor-selective agonist induced Ca^2+ signals with sub-nanomolar or nanomolar EC50 values. Subtype-selective compounds used here are PGE2 for EP1, EP2, EP3 and EP4; BW245C for DP; 17-phenyl PGF2α for FP, carbacyclin for IP and U-46619 for TP.\n(§7) Human Recombinant EP1, EP2, EP3, EP4, FP, TP, IP and DP Receptors: Stable Transfectants\nas §5"}, "hEP2 [4]": {"molecular_target": "T1, hEP2", "assay": "FLIPR Ca2+ signal assay, hEP2 co-expressed with Gqs", "type": "cell-based", "details": "EP2 receptor", "protocol": "as §6, §7, §5"}, "[5]": {"system": "cultured human skin fibroblasts", "assay": "TGF-β1-induced myofibroblast formation (α-SMA Western blot)", "type": "cell-based", "details": "10 or 100 nM with TGF-β1 2 ng/ml, 72 hours", "protocol": "EP4 and EP2 Receptor Agonists Inhibit TGF-β1-Induced Myofibroblasts Formation\nAdult skin fibroblasts were derived from normal skin of a person, purchased from ATCC(CRL-7346). Cells were cultured in DMEM medium supplemented with 10% fetal bovine serum and 1% streptomycin and penicillin in incubators at 37° C. and 5% CO2. Cells were seeded in 10 cm dishes at 1×10^6 cells/dish. When the cells became 80% confluent, they were cultured in serum-free medium for 48 hrs after washing away residual serum with PBS. Vehicle, Compound I (EP4 receptor agonist), or Compound II (EP2 receptor agonist), together with human recombinant TGF-β1 (2 ng/ml), were added to culture medium at 0, 10 or 100 nM final concentration, respectively. Compound I or 2 was first dissolved in DMSO, the final DMSO concentration was 0.1%. Cell lysates were collected at 72 hours after treatments, respectively. Proteins were quantified and resolved on 4-10% SDS-PAGE. Then the proteins were transferred to membrane by electrophoresis. The membranes were blocked with mouse-anti-alpha smooth muscle actin (α-SMA) antibody, and a second antibody against mouse-IgG conjugated with AP (purchased from Signal Transduction). Shown in FIG. 1A is a representative image of Western Blot myofibroblast marker expression under the treatment of EP4 or EP2 receptor agonists in combination with TGF-β1 in cultured human skin fibroblasts."}, "[6]": {"molecular_target": "T3, human recombinant EP4 receptor (Homo sapiens, UniProt P35408)", "T3 construct": "expressed in transfected cells", "T3 sequence (P35408 whole entry)": "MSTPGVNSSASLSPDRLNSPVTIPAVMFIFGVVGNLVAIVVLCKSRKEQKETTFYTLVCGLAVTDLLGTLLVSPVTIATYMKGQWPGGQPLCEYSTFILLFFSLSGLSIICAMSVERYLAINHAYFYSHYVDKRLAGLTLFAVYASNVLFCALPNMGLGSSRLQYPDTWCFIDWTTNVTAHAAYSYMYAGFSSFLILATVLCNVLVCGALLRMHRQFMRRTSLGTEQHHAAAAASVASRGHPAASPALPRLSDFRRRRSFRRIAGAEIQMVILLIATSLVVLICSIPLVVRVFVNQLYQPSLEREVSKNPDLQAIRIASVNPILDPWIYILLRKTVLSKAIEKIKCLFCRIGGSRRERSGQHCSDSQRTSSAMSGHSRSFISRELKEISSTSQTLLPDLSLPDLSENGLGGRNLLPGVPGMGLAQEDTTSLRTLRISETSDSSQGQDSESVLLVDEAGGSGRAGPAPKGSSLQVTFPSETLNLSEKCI", "assay": "Radioligand binding assay ([3H]PGE2 competition), EP4 receptor", "protocol": "as §2, §3, §4, §5"}, "[7]": {"molecular_target": "T4, human recombinant EP4 receptor (HEK-293 cells) (Homo sapiens, UniProt P35408)", "T4 construct": "expressed in transfected cells", "T4 sequence (P35408 whole entry)": "as above", "assay": "AlphaScreen cAMP assay, EP4 receptor", "type": "cell-based", "details": "read-out: EC50 for increased cAMP production", "protocol": "as §6, §7, §5"}, "hEP4/Gqs": {"molecular_target": "T5, hEP4/Gqs (Homo sapiens, UniProt P35408)", "T5 construct": "expressed in transfected cells", "T5 sequence (P35408 whole entry)": "as above", "assay": "FLIPR Ca2+ signal assay, hEP4/Gqs", "type": "cell-based", "protocol": "as §6, §7, §5"}, "incisional skin wounds [8]": {"system": "incisional skin wounds", "assay": "Incisional skin wound study, 14 day pilot, topical treatment", "type": "in vivo, Sprague-Dawley rats", "protocol": "Sprague-Dawley rats weighing 180-200 grams were anesthetized with isoflourane. After shaving, a 2-cm long incision was made, reaching the deep fascia on the back skin of rats under sterile conditions. The wounds were immediately closed with 4-0 sutures. A 14 day pilot study was carried out. The animals were topically treated with vehicle or Compound 1 at 0.004% twice daily. The vehicle contained ethanol 30%, propylene glycol 12%, dipropylene glycol 5%, benzyl alcohol 5%, glycerol 3% and normal saline 45%. The wound was photographed daily; biopsy was performed at 2, 3, 7 and 14 days post-surgery for histopathology and molecular biology analysis.\nas §1"}, "bFGF": {"system": "bFGF", "assay": "bFGF expression at wound sites (Western blot)", "type": "in vivo, Sprague Dawley rats", "details": "wound tissue, day-7 and day-14", "protocol": "(§8) 2 cm long incisional full thickness skin wounds were made on the back of Sprague Dawley rats. Wounds were treated with vehicle or EP4 agonist (compound I). The wound tissue was biopsied at day-7 or day-14 post-surgery. The samples were homogenized in protein extraction buffer after being frozen in liquid nitrogen. The protein concentrations were measured. Then the samples were loaded into 4-10% SDS-Pages to resolve the proteins. After electrophoresis, the proteins were transferred onto nitrocellular membranes. The membranes were blocked with anti-VEGF, anti-bFGF or anti-beta-actin, respectively. […] It is reported that bFGF prevents scar formation and reduces hypertrophic and burn-induced skin scars. VEGF expression was boosted by 25% transiently at day-7, which may contribute to angiogenesis at wound site and facilitate scar-free healing."}, "VEGF": {"system": "VEGF", "assay": "VEGF expression at wound sites (Western blot)", "type": "in vivo, Sprague Dawley rats", "details": "wound tissue, transiently at day-7", "protocol": "as §8"}, "[9]": {"details": "14 days post-surgery, Masson Trichrome"}}}
{"compound": "TGF-β3: a leading treatment for wounds, reportedly reducing skin scar in both animals and human; comparator", "values": [{"measurement": "number of neutrophils counted in three sections", "setting": "incisional skin wounds [1]", "value": "53.8±17"}, {"measurement": "macroscopic surface appearance of wound sites", "setting": "incisional skin wounds [1]", "value": "still showed traces of wounds"}, {"measurement": "abnormal regions of dense, red, fine parallel fibers in wound gaps", "setting": "incisional skin wounds [1]", "value": "largely absent"}, {"measurement": "widths of the abnormal structured dermis regions versus vehicle", "setting": "incisional skin wounds [1]; p<0.01-0.05", "value": "significantly smaller"}, {"measurement": "gap width in-between the normal fibrils versus vehicle", "setting": "incisional skin wounds [1]", "value": "significantly narrower"}, {"measurement": "collagen fibrils at wound sites under polarized light", "setting": "incisional skin wounds [1]", "value": "some green fibers at the bottom of the wounds"}, {"measurement": "size of residual scar regions versus vehicle", "setting": "incisional skin wounds [1]; day 70, Masson trichrome", "value": "remarkably smaller"}]}
{"compound": "CCCCC[C@H](O)c1ccc(N2C(=O)CC[C@@H]2CCCc2ccc(C(=O)O)s2)cc1", "note": "[Compound II]", "values": [{"measurement": "Ki", "setting": "hEP2 [2]", "value": 21, "unit": "nM"}, {"measurement": "EC50", "setting": "[3]", "value": 0.19, "unit": "nM"}, {"measurement": "EC50", "setting": "hEP2 [4]", "value": 6.7, "unit": "nM"}, {"measurement": "TGF-β1-up-regulated expression of α-SMA", "setting": "[5]", "value": "dramatically ameliorated"}]}
{"compound": "CC1(C)C(=O)[C@H](C/C=C\\CCCC(=O)O)[C@@H](/C=C/[C@H](O)CCc2sc3ccccc3c2Cl)[C@@H]1O", "note": "[Compound I]", "values": [{"measurement": "Ki", "setting": "[6]", "value": "6.7 ± 0.7", "unit": "nM"}, {"measurement": "EC50", "setting": "[7]", "value": "0.25 ± 0.03", "unit": "nM"}, {"measurement": "EC50", "setting": "hEP4/Gqs", "value": "0.11 ± 0.05", "unit": "nM"}, {"measurement": "TGF-β1-up-regulated expression of α-SMA", "setting": "[5]", "value": "dramatically ameliorated"}, {"measurement": "epidermal thickness of vehicle-treated skin relative to Compound I treated epidermis", "setting": "incisional skin wounds [8]; 7 days post-skin incision", "value": 3, "unit": "times"}, {"measurement": "thickness of epidermal layer of treated skin", "setting": "incisional skin wounds [8]; 7 days post-skin incision", "value": "close to the nearby normal epidermis"}, {"measurement": "gross skin scar appearance versus vehicle-treated animals", "setting": "incisional skin wounds [8]; 14 days post-surgery", "value": "smaller and softer skin scar"}, {"measurement": "scar width at the superficial region", "setting": "incisional skin wounds [8]; [9]", "value": "only a tendency to decrease"}, {"measurement": "scar width in the middle and bottom parts of scars", "setting": "incisional skin wounds [8]; [9]", "value": "significantly reduced"}, {"measurement": "overall size of epidermal defects, vehicle-treated wounds compared with Compound I treated wounds", "setting": "incisional skin wounds [8]; day 3", "value": "two times larger"}, {"measurement": "skin wound samples with closed epidermis filled with keratinocytes", "setting": "incisional skin wounds [8]; day 3, 0.004% topical twice daily", "value": 80, "unit": "%"}, {"measurement": "number of myofibroblasts (α-SMA-positive cells)", "setting": "incisional skin wounds [8]; day 3 samples, vehicle control 38±6.15", "value": "25.8±7.45 /3 sections"}, {"measurement": "polymorphonuclear cell infiltration at wound sites", "setting": "incisional skin wounds [8]; days 2 and 3", "value": "significantly reduced"}, {"measurement": "number of neutrophils counted in three sections", "setting": "incisional skin wounds [1]", "value": "31.4±8"}, {"measurement": "macroscopic surface appearance of wound sites", "setting": "incisional skin wounds [1]", "value": "wound sites were not even detectable"}, {"measurement": "abnormal regions of dense, red, fine parallel fibers in wound gaps", "setting": "incisional skin wounds [1]", "value": "largely absent"}, {"measurement": "widths of the abnormal structured dermis regions versus vehicle", "setting": "incisional skin wounds [1]; p<0.01-0.05", "value": "significantly smaller"}, {"measurement": "gap width in-between the normal fibrils versus vehicle", "setting": "incisional skin wounds [1]", "value": "significantly narrower"}, {"measurement": "collagen fibrils at wound sites under polarized light", "setting": "incisional skin wounds [1]", "value": "large yellow-stained collagen bundles almost crossing over the entire wound sites"}, {"measurement": "size of residual scar regions versus vehicle", "setting": "incisional skin wounds [1]; day 70, Masson trichrome", "value": "remarkably smaller"}, {"measurement": "effect on residual scar size compared with TGF-β3", "setting": "incisional skin wounds [1]; day 70, Masson trichrome, p<0.01-0.05", "value": "more noticeable than TGF-β3"}, {"measurement": "enhancement of bFGF expression", "setting": "bFGF", "value": "up to 60%"}, {"measurement": "boost of VEGF expression", "setting": "VEGF", "value": 25, "unit": "%"}]}
